{"source": "PubChem BioAssay AID1068", "about": "(Emory University Molecular Libraries Screening Center, 2008)", "biological_target": "Ubiquitin carboxyl-terminal hydrolase BAP1 (Homo sapiens) (UniProt Q92560)", "sequence (Q92560 whole entry, looked up)": "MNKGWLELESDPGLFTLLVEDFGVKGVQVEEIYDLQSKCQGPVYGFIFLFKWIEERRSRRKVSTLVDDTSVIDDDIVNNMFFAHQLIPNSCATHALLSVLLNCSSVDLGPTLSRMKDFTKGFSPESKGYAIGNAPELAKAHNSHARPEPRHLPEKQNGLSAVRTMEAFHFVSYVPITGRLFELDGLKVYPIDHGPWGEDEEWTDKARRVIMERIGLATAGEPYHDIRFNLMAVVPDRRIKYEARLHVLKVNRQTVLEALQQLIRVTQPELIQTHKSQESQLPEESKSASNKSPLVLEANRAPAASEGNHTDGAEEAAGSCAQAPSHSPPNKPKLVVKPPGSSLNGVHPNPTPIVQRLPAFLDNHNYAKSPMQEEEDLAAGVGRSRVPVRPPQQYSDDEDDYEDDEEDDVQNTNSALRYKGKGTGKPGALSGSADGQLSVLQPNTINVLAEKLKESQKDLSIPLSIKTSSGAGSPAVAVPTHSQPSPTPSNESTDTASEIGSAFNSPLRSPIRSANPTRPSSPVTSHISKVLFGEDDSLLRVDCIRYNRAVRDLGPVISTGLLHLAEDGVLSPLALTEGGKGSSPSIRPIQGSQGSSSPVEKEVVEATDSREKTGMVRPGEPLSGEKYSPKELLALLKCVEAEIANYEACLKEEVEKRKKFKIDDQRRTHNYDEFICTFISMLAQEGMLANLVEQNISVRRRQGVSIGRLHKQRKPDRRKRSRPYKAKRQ", "test": "BAP1 deubiquitinase inhibition, substrate comparison – biochemical, Ub-AMC versus Ub-rhodamine substrates, dose response (AID 1068)", "settings": "recombinant BAP1, Ub-rhodamine hydrolysis fluorescence", "key": {"[1]": {"settings": "measured here: Ub-AMC substrate assay"}}, "note": "Activity calls are given as the source filed them.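 How the source made its calls: active means IC50 of 15 µM or lower, and residual activity at the IC50 concentration no higher than 60%; inactive means the rest.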", "data": [{"compound": "COc1cc(-c2nnc(SCC(=O)Nc3sc(C)c(-c4ccc(F)cc4)c3C#N)o2)cc(OC)c1OC", "values": [{"measurement": "IC50", "value": "inactive"}, {"measurement": "IC50", "setting": "[1]", "value": 39.6, "unit": "µM"}]}, {"compound": "Cc1sc(NC(=O)CSc2nc3ncnc(N)c3[nH]2)c(C#N)c1C", "values": [{"measurement": "outcome", "value": "inactive"}, {"measurement": "IC50", "setting": "[1]", "value": "> 100", "unit": "µM"}]}, {"compound": "COc1cccc(NC(=O)c2ccccc2-c2nc(-c3cccc(Cl)c3)no2)c1", "values": [{"measurement": "IC50", "value": "inactive"}, {"measurement": "IC50", "setting": "[1]", "value": 37.5, "unit": "µM"}]}, {"compound": "Cc1ccc(-c2c(C)sc(NC(=O)CSc3nnc(-c4ccc(Cl)cc4)o3)c2C#N)cc1C", "values": [{"measurement": "IC50", "value": 13.5, "unit": "µM"}, {"measurement": "IC50", "setting": "[1]", "value": 32.6, "unit": "µM"}]}, {"compound": "Cc1sc(NC(=O)CSc2nnc(-c3ccccc3)o2)c(C#N)c1-c1ccc(F)cc1", "values": [{"measurement": "IC50", "value": 12.5, "unit": "µM"}, {"measurement": "IC50", "setting": "[1]", "value": 32.1, "unit": "µM"}]}, {"compound": "O=C(O)c1ccccc1-c1nc(-c2ccc(Cl)cc2)no1", "values": [{"measurement": "IC50", "value": "inactive"}, {"measurement": "IC50", "setting": "[1]", "value": 1.31, "unit": "µM"}]}, {"compound": "Cc1cccc2cc(C(C#N)N3CCN(C(=O)OC(C)(C)C)CC3)c(=O)[nH]c12", "note": "(stereo not drawn)", "values": [{"measurement": "IC50", "value": "inactive"}, {"measurement": "IC50", "setting": "[1]", "value": "> 100", "unit": "µM"}]}, {"compound": "COc1ccccc1NC(=O)c1ccccc1-c1nc(-c2ccc(Cl)cc2)no1", "values": [{"measurement": "IC50", "value": "inactive"}, {"measurement": "IC50", "setting": "[1]", "value": 40.1, "unit": "µM"}]}, {"compound": "O=C(NCc1ccccn1)c1cc2nc(-c3ccc4c(c3)OCO4)cc(C(F)(F)F)n2n1", "values": [{"measurement": "outcome", "value": "inactive"}, {"measurement": "IC50", "setting": "[1]", "value": "> 100", "unit": "µM"}]}, {"compound": "Cc1sc(NC(=O)CSc2n[nH]c(-c3ccc(O)cc3)n2)c(C#N)c1-c1ccc(F)cc1", "values": [{"measurement": "IC50", "value": 9.11, "unit": "µM"}, {"measurement": "IC50", "setting": "[1]", "value": 15.3, "unit": "µM"}]}, {"compound": "Cc1sc(NC(=O)CSc2nnc(-c3ccc(F)cc3)o2)c(C#N)c1C", "values": [{"measurement": "IC50", "value": "inactive"}, {"measurement": "IC50", "setting": "[1]", "value": 99.7, "unit": "µM"}]}, {"compound": "Cc1cccc2cc(C(c3nnnn3C(C)(C)C)N3CCN(C(=O)c4ccco4)CC3)c(=O)[nH]c12", "note": "(stereo not drawn)", "values": [{"measurement": "IC50", "value": "< 0.78 µM (inactive)"}, {"measurement": "IC50", "setting": "[1]", "value": 55.7, "unit": "µM"}]}, {"compound": "COc1cc(-c2nnc(SCC(=O)Nc3sc(C)c(C)c3C#N)o2)cc(OC)c1OC", "values": [{"measurement": "outcome", "value": "inactive"}, {"measurement": "IC50", "setting": "[1]", "value": 2.32, "unit": "µM"}]}, {"compound": "COc1cccc(NC(=O)c2ccccc2-c2nc(-c3ccc(Cl)cc3)no2)c1", "values": [{"measurement": "IC50", "value": "inactive"}, {"measurement": "IC50", "setting": "[1]", "value": 39.9, "unit": "µM"}]}, {"compound": "CCc1cc(=O)[nH]c(SCC(=O)Nc2ccc(C(=O)OC)cc2)n1", "values": [{"measurement": "outcome", "value": "inactive"}, {"measurement": "IC50", "setting": "[1]", "value": "> 100", "unit": "µM"}]}, {"compound": "O=C(NCc1ccco1)c1cc2nc(-c3ccc4c(c3)OCO4)cc(C(F)(F)F)n2n1", "values": [{"measurement": "IC50", "value": "inactive"}, {"measurement": "IC50", "setting": "[1]", "value": "> 100", "unit": "µM"}]}, {"compound": "Cc1sc(NC(=O)CSc2nnc(-c3ccc(Cl)cc3)o2)c(C#N)c1-c1ccc(F)cc1", "values": [{"measurement": "IC50", "value": 5.51, "unit": "µM"}, {"measurement": "IC50", "setting": "[1]", "value": "> 100", "unit": "µM"}]}, {"compound": "Cc1sc(NC(=O)CSc2nnc(-c3ccccc3)o2)c(C#N)c1C", "values": [{"measurement": "IC50", "value": "inactive"}, {"measurement": "IC50", "setting": "[1]", "value": 47.8, "unit": "µM"}]}, {"compound": "Cc1cccc2cc(C(c3nnnn3C(C)(C)C)N3CCNCC3)c(=O)[nH]c12", "note": "(stereo not drawn)", "values": [{"measurement": "IC50", "value": "inactive"}, {"measurement": "IC50", "setting": "[1]", "value": "> 100", "unit": "µM"}]}, {"compound": "CCCc1cc(=O)[nH]c(SCC(=O)Nc2ccc(C(=O)OC)cc2)n1", "values": [{"measurement": "outcome", "value": "inactive"}, {"measurement": "IC50", "setting": "[1]", "value": "> 100", "unit": "µM"}]}, {"compound": "Cc1sc(NC(=O)CSc2nnc(-c3ccc(Cl)cc3)o2)c(C#N)c1C", "values": [{"measurement": "IC50", "value": 9.54, "unit": "µM"}, {"measurement": "IC50", "setting": "[1]", "value": 37.4, "unit": "µM"}]}, {"compound": "O=C(O)c1ccccc1-c1nc(-c2cccc(Cl)c2)no1", "values": [{"measurement": "IC50", "value": "> 100 µM (inactive)"}, {"measurement": "IC50", "setting": "[1]", "value": 58.8, "unit": "µM"}]}, {"compound": "Cc1cccc2cc(C(C#N)N3CCNCC3)c(=O)[nH]c12", "note": "(stereo not drawn)", "values": [{"measurement": "IC50", "value": "inactive"}, {"measurement": "IC50", "setting": "[1]", "value": 1.55, "unit": "µM"}]}, {"compound": "Cc1cccc2cc(C(c3nnnn3C(C)(C)C)N3CCN(C(=O)OC(C)(C)C)CC3)c(=O)[nH]c12", "note": "(stereo not drawn)", "values": [{"measurement": "IC50", "value": "> 100 µM (inactive)"}, {"measurement": "IC50", "setting": "[1]", "value": "> 100", "unit": "µM"}]}, {"compound": "Cc1oc(NC(=O)CSc2n[nH]c(-c3ccc(F)cc3)n2)c(C#N)c1C", "values": [{"measurement": "IC50", "value": "> 100 µM (inactive)"}, {"measurement": "IC50", "setting": "[1]", "value": 46.5, "unit": "µM"}]}, {"compound": "Cc1ccc(-c2c(C)sc(NC(=O)CSc3nnc(-c4ccccc4)o3)c2C#N)cc1C", "values": [{"measurement": "IC50", "value": "inactive"}, {"measurement": "IC50", "setting": "[1]", "value": 69.8, "unit": "µM"}]}, {"compound": "COC(=O)c1ccc(NC(=O)CSc2nc(C)cc(=O)[nH]2)cc1", "values": [{"measurement": "outcome", "value": "inactive"}, {"measurement": "IC50", "setting": "[1]", "value": "> 100", "unit": "µM"}]}, {"compound": "CCc1ccc(NC(=O)CSc2nc(C)cc(=O)[nH]2)cc1", "values": [{"measurement": "outcome", "value": "inactive"}, {"measurement": "IC50", "setting": "[1]", "value": 5.62, "unit": "µM"}]}, {"compound": "O=C(NCc1cccs1)c1cc2nc(-c3ccc4c(c3)OCO4)cc(C(F)(F)F)n2n1", "values": [{"measurement": "IC50", "value": "inactive"}, {"measurement": "IC50", "setting": "[1]", "value": 44.7, "unit": "µM"}]}, {"compound": "Cc1ccc(-c2c(C)sc(NC(=O)CSc3nnc(-c4ccc(F)cc4)o3)c2C#N)cc1C", "values": [{"measurement": "IC50", "value": 10, "unit": "µM"}, {"measurement": "IC50", "setting": "[1]", "value": 37, "unit": "µM"}]}, {"compound": "O=C(Nc1cccc(O)c1)c1ccccc1-c1nc(-c2cccc(Cl)c2)no1", "values": [{"measurement": "IC50", "value": "inactive"}, {"measurement": "IC50", "setting": "[1]", "value": 27.1, "unit": "µM"}]}, {"compound": "Cc1cccc2cc(C(c3nn[nH]n3)N3CCN(C(=O)OC(C)(C)C)CC3)c(=O)[nH]c12", "note": "(stereo not drawn)", "values": [{"measurement": "IC50", "value": "> 100 µM (inactive)"}, {"measurement": "IC50", "setting": "[1]", "value": 38.9, "unit": "µM"}]}, {"compound": "N#Cc1c(NC(=O)CSc2nnc(-c3ccc(Cl)cc3)o2)sc2c1CCCC2", "values": [{"measurement": "IC50", "value": "inactive"}, {"measurement": "IC50", "setting": "[1]", "value": "> 100", "unit": "µM"}]}, {"compound": "N#Cc1c(NC(=O)CSc2nnc(-c3ccc(F)cc3)o2)sc2c1CCCC2", "values": [{"measurement": "IC50", "value": "inactive"}, {"measurement": "IC50", "setting": "[1]", "value": 41.7, "unit": "µM"}]}]}
